# How the values were obtained:
# [1] = tested on: DMN-induced rat liver fibrosis model; test: DMN-induced rat liver fibrosis model, orthogonal design; assay type: in vivo, Wistar male rats
# Source text: The DMN-induced rat liver fibrosis model and analysis of orthogonal design is used to obtain the optimal ratio of the composition to lower collagen content in the liver.
# 160 Wistar male rats, (40 in normal group, 120 in the model group), clean level, body weight (150±10) g, provided by the Shanghai Experimental Animal Center of Chinese Academy of Sciences, and is fed, modeled, and observed in Clean Animal room of Shanghai Medical University Experimental Animal Center, free access to water.
# Astragalus Astragalosides and Glycyrrhiza Acid are mixed by weight ratio 3:1, 4:1, 5:1 and 6:1, drug composition A+B in different proportions are randomly selected for subsequent experiments.
# Referring to Ala-Kokko method of modeling (Ala-Kokko L, Pihlajaniemi T, Myers J C et al. Gene expression of type I, III and IV collagens in liver fibrosis induced by dimethylnitrosamine in the rat. Biochem J 1987; 244: 75-9.) DMN is diluted with saline into 0.5% solution, in the model group, 120 rats are intraperitoneally injected by […] dose, once per day, on the beginning 3 days of a week, for 4 weeks. In normal control group, 40 rats are intraperitoneally injected with normal saline of same dose.
# Respectively at the end of three days of modeling, the end of two weeks of modeling, the end of three weeks of modeling, and the end of four weeks of modeling, 10 normal rats, 10 model rats are observed as a model of dynamic observation. Starting from the end of 2 weeks of modeling, the model rats were randomly divided into 1-6 groups of orthogonal design and model group, each having 10 rats. While continuing modeling, the groups of orthogonal design are intervened by eight times of clinical dose amount of a 65 kg adult body weight, administrated respectively in accordance with design amount. Before using, the drug composition is diluted with 10 ml of distilled water, and is processed with intragastric administration according to 10 ml/kg rat body weight dose, once daily for 2 weeks. And normal control rats (10) and model control group (10) are set; rats in the normal group and the model control groups are processed with intragastric administration by the same volume of distilled water.
# Astragalus glycosides A, Glycyrrhiza Acid, B, and drugcomposition A+B are factors for evaluation, each factor were set from two levels (level 1=administration, level 2=no), to obtain the orthogonal design. Model groups and normal groups are set.
# Measurement data is expressed as x±s, the SAS 9.1.2, DAS 2.1.1 and SPSS16.0 statistical software are used to process data, and single-factor analysis of variance is used for comparisons between multiple groups.
# [2] = tested on: rats of bile duct ligation; test: Bile duct ligation (BDL) rat liver fibrosis model; assay type: in vivo, SD male rats; conditions: BDL 4 weeks; for Hyp (liver tissue Hyp content): intragastric once daily for 3 weeks from week 2; for Hyp (liver tissue Hyp content) / biliary liver fibrosis scores (integral): x±s
# Source text: Effect of active component compatibility of Astragalus soup of anti-hepatic fibrosis for rats of bile duct ligation
# 83 SD male rats, SPF grade, weighing 200˜220 g, by the Shanghai Experimental Animal Center of Chinese Academy of Sciences, Certificate of Conformity: SCXK (Shanghai) 2010-0005, fed on the Shanghai Medical University Experimental Animal Center, free access to water.
# Model rats (75 rats) are cut along the ventral midline, exposing the common bile duct, conversely injected hardener into hilus hepatis, ligating proximal and distal ends of the common bile duct, cutting the middle, closing the abdomen for 4 weeks. Sham-operated rats (8 rats) only have abdomen cut, and closed after freeing the common bile duct.
# Starting from the first day of 2nd week of modeling, the model rats were randomly divided into 5 groups of astragalus soup, A/B combination, A alone, B alone, and UDCA, each group has 12 rats. While continuing modeling, the groups of administration are intervened by eight times of clinical dose amount of a 65 kg adult body weight. Before using, the drug compositions of astragalus soup, A/B combination, A alone, B alone, and UDCA (UDCA: 80 mg·kg^−1·d^−1, ig) are respectively diluted with 10 ml of distilled water, and is processed with intragastric administration according to 10 ml/kg rat body weight dose, once daily for 3 weeks. And sham-operation control rats (8) and model control group (15) are set; rats in the normal group and the model control group are processed with intragastric administration by the same volume of distilled water.
# At the end of 4th week, rats are executed to obtain test samples. HE staining and collagen staining of liver tissue, liver tissue Hyp content, serum liver function: ALT, aspartate aminotransferase, AST, and activity of alkaline phosphatase, ALP, albumin, Alb, and total bilirubin, TBil content.
# [3] = tested on: DMN-induced rat liver fibrosis model; test: DMN-induced rat liver fibrosis model, orthogonal design; assay type: in vivo, Wistar male rats; conditions: result in words; compared with original astragalus soup
Structure (SMILES),"Hyp (hydroxyproline content in liver tissue) ([1]; DMN modeling 4 weeks, intragastric once daily for 2 weeks from end of week 2, x±s) [µg/g]","hyperplasia stages of rat liver collagen: stage 0 ([1]; number of rats at stage 0, DMN 4 weeks)","hyperplasia stages of rat liver collagen: stage I ([1]; number of rats at stage I, DMN 4 weeks)","hyperplasia stages of rat liver collagen: stage II ([1]; number of rats at stage II, DMN 4 weeks)","hyperplasia stages of rat liver collagen: stage III ([1]; number of rats at stage III, DMN 4 weeks)","BMP-7 mRNA, protein and protein expression of P-Smad1/5/8 in liver tissue ([1]; result in words, liver fibrosis in rat liver tissues by DMN)","serum liver function ALP ([1]; serum, DMN 4 weeks, x±SD) [K/100 ml]","serum liver function ALT ([1]; serum, DMN 4 weeks, x±SD) [U/L]","serum liver function AST ([1]; serum, DMN 4 weeks, x±SD)","serum liver function Alb ([1]; serum, DMN 4 weeks, x±SD) [g/L]","serum liver function TBil ([1]; serum, DMN 4 weeks, x±SD) [µmol/L]",Hyp (liver tissue Hyp content) [2],biliary liver fibrosis scores (integral) [2],serum liver function ALP [2] [K/100 ml],serum liver function ALT [2] [U/L],serum liver function AST [2] [U/L],serum liver function Alb [2] [g/L],serum liver function TBil [2],reduces generating of TGF-β1 [3]
"CC1(C)[C@@H](O[C@H]2O[C@H](C(=O)O)[C@@H](O)[C@H](O)[C@H]2O[C@@H]2O[C@H](C(=O)O)[C@@H](O)[C@H](O)[C@H]2O)CC[C@]2(C)[C@H]3C(=O)C=C4[C@@H]5C[C@@](C)(C(=O)O)CC[C@]5(C)CC[C@@]4(C)[C@]3(C)CC[C@@H]12 [B, Glycyrrhiza Acid]",595.74 ± 109.74,0,0,5,4,significantly increase,38.77 ± 17.84,55.18 ± 17.12,76.61 ± 14.09^ U/L,23.11 ± 5.52,10.23 ± 5.42,"772.00 ± 86.81^$ μg/g, wet liver weight",6.50 ± 0.84^$,77.22 ± 4.05,26.66 ± 7.89,93.67 ± 14.46,25.07 ± 5.18,67.35 ± 7.39^$ μmol/L,significantly better than the original astragalus soup
"C[C@H](CCC(=O)O)[C@H]1CC[C@H]2[C@@H]3[C@@H](O)C[C@@H]4C[C@H](O)CC[C@]4(C)[C@H]3CC[C@]12C [UDCA, Ursodeoxycholic acid]",–,–,–,–,–,–,–,–,–,–,–,"790.16 ± 129.85^$$ μg/g, wet liver weight",6.83 ± 0.75^$$,79.01 ± 5.80,28.79 ± 8.61,102.80 ± 26.01,24.20 ± 3.64,67.60 ± 9.62^$ μmol/L,–

# From patent US8846626B2, “Drug composition for treating chronic liver disease and its application” (Shuguang Hospital Affiliated with Shanghai University of …, priority 2010, dated 2014)
